{"source": "paper PMC9609692", "about": "“Alternative Methotrexate Oral Formulation: Enhanced Aqueous Solubility, Bioavailability, Photostability, and Permeability” (Pharmaceutics, 2022)", "key": {"[1]": {"assay": "Phase solubility study of MTX in cyclodextrin solutions", "type": "physicochemical", "settings": "MTX with the cyclodextrin, aqueous solution, 25 °C, 1:1 complex", "description": "The degree of complexation between MTX and β-CDs was determined through phase solubility experiments, as established by Higuchi and Conners. Briefly, an excess of MTX was added to the 10 mL aqueous solution of increasing concentrations (0 to 15 mM) containing each of β-CD, HP-β-CD, M-β-CD, and DM-β-CD. The samples tubes were then vortexed for a few seconds and placed in a water bath maintained at 100 rpm in 25 °C for 5 days (Maxturdy-30; Daihan Scientific, Wonju, Korea) to obtain the saturated complex suspension. The suspension samples obtained were then centrifuged at 10,000 rpm for 10 min and the supernatant was collected, and filtered using a 0.45 µm syringe filter. The samples were then diluted with a mobile phase to obtain the suitable concentrations before being quantified using a HPLC system. All concentrations were made in triplicate (n = 3).\nThe outcomes of the phase solubility tests were plotted against the known CD and MTX concentration in the sample and the resulting regression profiles was used to derive the association constant (Kα). The apparent association constant (Kα) was calculated from the phase solubility curve according to the following equation:(1) Kα=D :CD/D×CD=Slope/So1−Slope\nThe complexation efficiency (CE) of the IC system was calculated from the Slope of the phase solubility profiles. (2) CE=D :CD/CD=So×Kα=Slope/1−Slope"}, "[2]": {"tested_on": "Caco-2 cells", "parameters": "method as in PMID 29498663, PMID 31761193", "settings": "read-out: half-maximal inhibitory concentration (IC50) against Caco-2 cells; cited from earlier work"}, "[3]": {"assay": "Particle size distribution by laser diffraction", "type": "physicochemical", "settings": "powder", "description": "The complete particle size distribution of free MTX powder and all four MTX-CD IC formulations was investigated by laser diffraction (Mastersizer 3000; Malvern Instruments, Malvern, UK). The particle size/distribution is expressed as Dx10, Dx50, and Dx90, taken from the cumulative distribution, where the particle diameters are measured at the 10th, 50th, and 90th percentiles, respectively. The experiments were performed in triplicate."}, "[4]": {"assay": "Photostability assessment", "type": "physicochemical", "settings": "powder, 20 days, 25 °C/60% RH, 1.2 million lux·hr", "description": "The free MTX powder and the prepared IC formulations were subjected to UV irradiation for a period of 20 days. The powdered samples were spread over the bottom surface of transparent glass vials and stored at 25 °C/60% RH in a photostability chamber (Model 6545-2; Caron, Marietta, OH, USA). There, the samples were exposed to a light source of 1.2 million lux·hr intensity. At scheduled time intervals, a few mg of the sample was drawn, and assayed for the drug content by HPLC method, as described above. At the end of the study period, the samples were physically inspected for any physical changes on the stability of MTX."}, "[5]": {"tested_on": "Caco-2 cells", "assay": "MTT cytotoxicity assay", "type": "cell-based, human", "settings": "up to 200 µM, 24 h incubation", "description": "An MTT assay was used to assess the potential cytotoxic behavior of MTX and MTX/DM-β-CD on human intestinal epithelial cancer cells (Caco-2). The Caco-2 cells were grown in DMEM supplemented with 10% FBS, 1% v/v sodium pyruvate, L-glutamine, penicillin, and MEM non-essential amino acids. The cells (2 × 10^4 cells/well) were then seeded onto 96-well transwell plates and incubated at 37 °C with 5% CO2 for 24 h. New medium containing the tested formulations i.e., MTX and MTX/DM-β-CD (IC4), with varying concentrations, were added and incubated for 24 h. The culture medium was then aspirated, and the viability of the cells was determined by adding 20 μL/well of MTT solution to each 96-well plate and incubating for another 4 h. The formazan crystals were dissolved by adding 150 μL/well DMSO. The developed formazan was assayed at 570 nm, using a microplate reader with untreated cells serving as a control. All the tests were carried out in two microplates with six parallel wells each."}, "[6]": {"settings": "for doses >40 mg/m^2; cited from earlier work"}, "[7]": {"assay": "In vivo pharmacokinetic study after oral administration", "parameters": "species or system Sprague-Dawley rats", "settings": "rats, equiv. 20 mg/kg MTX, n = 6", "description": "To assess the in vivo pharmacokinetic parameters of free MTX and MTX-CD IC formulations, 30 male Sprague-Dawley rats (6–8 weeks old, weighing 280 ± 20 g) were used (Nara Biotech., Seoul, Korea). All the animals were fed with a normal laboratory diet and water and left for acclimatization in a laboratory environment for 3 days at 23–25 °C/50–55% RH. Care and handling of animals complied with the provisions of guidelines defined and agreed upon by the Institutional Animal Care and Use Committee at the Kyungpook National University (permit number. 2019-0054).\nBefore the experiment, the animals were divided into five groups with 6 animals per group and made to fast overnight. Each rat, anesthetized with ether, was fixed on a surgical board in the supine position by a thread. A polyethylene tube containing 50 IU/mL of heparin in saline was inserted into the right femoral artery of the rat for cannulation. Then, either 1 mL aqueous suspension of free MTX or the four MTX-CD IC formulations (Equiv. to 20 mg/kg of MTX) was administered orally to each of the rats using oral gavage. Blood samples (~0.3 mL) were drawn from the planted tube at various time periods of 5, 15, 30, 60, 120, 240, 480, 720, and 1440 min after the oral administration. The samples were then immediately transferred into heparin-containing microtubes and centrifuged at 10,000 rpm for 10 min to extract the plasma. The extracted plasma samples were transferred to other microtubes and stored at −20 °C until further analysis by HPLC.\nPlasma (90 μL) was mixed with 10 μL of theophylline solution (1000 μg/mL in MeOH) as the internal standard and 100 μL of methanol, respectively. The samples (200 μL) were then centrifuged at 13,000 rpm for 10 min and the upper clear supernatant layer was drawn and injected into the HPLC system (20 μL) for the quantification of MTX. In addition, the blood samples drawn at pre-dose (0 h) were used to draw a six-point calibration plot. The Slope of the graph was linear with R^2 = 0.995 over the range of 25–2000 ng/mL. The mobile phase composition, flow rate, analytical column used, and UV wavelength of the HPLC method was similar to that described in Section 2.3. The pharmacokinetic (PK) parameters such as maximal plasma concentration (Cmax), time to reach Cmax (Tmax), were obtained from the plasma concentration vs. time plots. Moreover, the area under the plasma concentration vs. time curve (AUC0–∞) was calculated using the linear trapezoidal summation rule and elimination half-life (t1/2), and elimination rate constant (Kel) were obtained using non-compartmental model WinNonlin software (Pharsight Corp., Mountain View, CA, USA). Differences in the PK parameters were assessed with the one-way ANOVA test and a p value of less than 0.05 (p < 0.05) was considered statistically significant."}, "[8]": {"settings": "cited from earlier work"}, "[9]": {"assay": "In vitro Caco-2 permeation experiment", "type": "in vitro ADME", "settings": "human, Caco-2 monolayer, 50 µg/mL MTX", "description": "The in vitro permeability of MTX and MTX/DM-β-CD formulation was evaluated using Caco-2 cells (passage no 45) and performed like the previously reported method. The cells were seeded (5 × 10^5 cells/well) onto filter inserts from 12-well transwell plates and grown at 37 °C with 5% CO2 for 24 h. The cells were then cultured for three weeks, with the media being replaced on alternate days. Caco-2 cells with TEER ≥ 500 Ω·cm^2 were used in this experiment, which is indicative of adequate monolayer formation.\nTo evaluate the A to B transfer, the medium from each well was replaced with prewarmed HBSS (washing of monolayer) and maintained at 37 °C for 15 min. The HBSS solution on both sides of the cell monolayer was removed by decanting and aspiration from the lower end of the plate well. Then, 0.5 mL of HBSS (pH 7.4) medium containing 50 µg/mL of MTX alone or eqvt. concentration of MTX/DM-β-CD formulation was placed to the dosing compartment (A) and 1.5 mL of fresh HBSS in the receiving compartment (B). […] MTX was quantified at m/z 455.2 ⟶ 308.1 while berberine at m/z 336.1 ⟶ 320.0.\nThe apparent permeability coefficient (Papp, cm/s) was calculated as:(3) Papp=(dQ/dt)/(C0×A)\nThe efflux ratio (ER) was calculated as:(4) ER=Papp (B→A)/Papp (A→B) where, Papp (B → A) and Papp (A → B) represents the apparent permeability of the investigated formulations."}, "[10]": {"settings": "male, Sprague-Dawley, rat, plasma"}}, "data": [{"molecule": "COCC1OC2OC3C(COC)OC(OC4C(COC)OC(OC5C(COC)OC(OC6C(COC)OC(OC7C(COC)OC(OC8C(COC)OC(OC1C(O)C2OC)C(OC)C8O)C(OC)C7O)C(OC)C6O)C(OC)C5O)C(OC)C4O)C(OC)C3O", "note": "(stereo not drawn) [DM-β-CD, heptakis (2,6-di-O-methyl)-β-cyclodextrin]", "values": [{"measurement": "Stability Constant (Kα)", "setting": "[1]", "result": 3114.69, "unit": "M⁻¹"}]}, {"molecule": "COc1cccc2c1C(=O)c1c(O)c3c(c(O)c1C2=O)C[C@@](O)(C(=O)CO)C[C@@H]3O[C@H]1C[C@H](N)[C@H](O)[C@H](C)O1", "note": "[doxorubicin]", "values": [{"measurement": "IC50", "setting": "[2]", "result": 5, "unit": "µM"}]}, {"molecule": "CN(Cc1cnc2nc(N)nc(N)c2n1)c1ccc(C(=O)N[C@@H](CCC(=O)O)C(=O)O)cc1", "note": "[MTX, Methotrexate]", "values": [{"measurement": "Dx (10)", "setting": "[3]", "result": "3.60 ± 0.48", "unit": "μm"}, {"measurement": "Dx (50)", "setting": "[3]", "result": "14.03 ± 2.97", "unit": "μm"}, {"measurement": "Dx (90)", "setting": "[3]", "result": "103.73 ± 12.13", "unit": "μm"}, {"measurement": "decrease in MTX concentration after UV irradiation", "setting": "[4]", "result": "36.8 ± 1.7", "unit": "%"}, {"measurement": "cytotoxicity against Caco-2 cells", "setting": "[5]", "result": "no substantial cytotoxicity"}, {"measurement": "bioavailability", "setting": "[6]", "result": "~ 18%"}, {"measurement": "AUC", "setting": "[7]; [10]", "result": "1740 ± 295", "unit": "ng·h/mL"}, {"measurement": "Tmax", "setting": "[7]; [10]", "result": "1.13 ± 0.23", "unit": "h"}, {"measurement": "half-life", "setting": "[7]; [10]", "result": "324 ± 43.2", "unit": "min"}, {"measurement": "k el", "setting": "[7]; [10]", "result": "3.61e-05", "unit": "s⁻¹"}, {"measurement": "Cmax", "setting": "[7]", "result": "265.63 ± 57.05", "unit": "ng/mL"}, {"measurement": "C logP", "setting": "[8]", "result": 0.53}, {"measurement": "Papp A→B at 1 h, 50 µg/mL", "setting": "[9]; HBSS pH 7.4, 1 h, read-out: Papp A to B transport", "result": "0.57 ± 0.14", "unit": "×10⁻⁶ cm/s"}, {"measurement": "efflux ratio at 1 h, 50 µg/mL", "setting": "[9]; HBSS pH 7.4, read-out: efflux ratio (B to A/A to B)", "result": 8}]}, {"molecule": "OC[C@H]1O[C@@H]2O[C@H]3[C@H](O)[C@@H](O)[C@@H](O[C@H]4[C@H](O)[C@@H](O)[C@@H](O[C@H]5[C@H](O)[C@@H](O)[C@@H](O[C@H]6[C@H](O)[C@@H](O)[C@@H](O[C@H]7[C@H](O)[C@@H](O)[C@@H](O[C@H]8[C@H](O)[C@@H](O)[C@@H](O[C@H]1[C@H](O)[C@H]2O)O[C@@H]8CO)O[C@@H]7CO)O[C@@H]6CO)O[C@@H]5CO)O[C@@H]4CO)O[C@@H]3CO", "note": "[β-CD, β-cyclodextrin]", "values": [{"measurement": "Stability Constant (Kα)", "setting": "[1]", "result": 552.25, "unit": "M⁻¹"}]}, {"molecule": "CC(=O)O[C@@]12CO[C@@H]1C[C@H](O)[C@@]1(C)C(=O)[C@H](O)C3=C(C)[C@@H](OC(=O)[C@H](O)[C@@H](NC(=O)OC(C)(C)C)c4ccccc4)C[C@@](O)([C@@H](OC(=O)c4ccccc4)[C@H]21)C3(C)C", "note": "[docetaxel]", "values": [{"measurement": "IC50", "setting": "[2]", "result": 70, "unit": "µM"}]}, {"molecule": "2-hydroxylpropyl-β-CD [HP-β-CD]", "values": [{"measurement": "Stability Constant (Kα)", "setting": "[1]", "result": 433.56, "unit": "M⁻¹"}]}, {"molecule": "methyl-β-cyclodextrin [M-β-CD]", "values": [{"measurement": "Stability Constant (Kα)", "setting": "[1]", "result": 574.48, "unit": "M⁻¹"}]}]}
